Data from ChEMBL document CHEMBL5506036, “Exploring the Structural Attributes of Yoda1 for the Development of New-Generation Piezo1 Agonist Yaddle1 as a Vaccine Adjuvant Targeting Optimal T Cell Activation” (J Med Chem, 2024).
Converted amounts (≈) assume the structure as drawn. The source made the active and inactive calls. No cut-off for these calls is given here.

How the values were obtained:
[1] = target: T1, Piezo-type mechanosensitive ion channel component 1 (Homo sapiens, UniProt Q92508); assay: Agonist activity at human PIEZO1 overexpressing HEK293-A cells co-expressing mCherry-piezo1 assessed as fold change in calcium influx at 15 uM by fluo-3 based real-time flow cytometric analysis; assay type: cell-based
T1 sequence (Q92508 whole entry): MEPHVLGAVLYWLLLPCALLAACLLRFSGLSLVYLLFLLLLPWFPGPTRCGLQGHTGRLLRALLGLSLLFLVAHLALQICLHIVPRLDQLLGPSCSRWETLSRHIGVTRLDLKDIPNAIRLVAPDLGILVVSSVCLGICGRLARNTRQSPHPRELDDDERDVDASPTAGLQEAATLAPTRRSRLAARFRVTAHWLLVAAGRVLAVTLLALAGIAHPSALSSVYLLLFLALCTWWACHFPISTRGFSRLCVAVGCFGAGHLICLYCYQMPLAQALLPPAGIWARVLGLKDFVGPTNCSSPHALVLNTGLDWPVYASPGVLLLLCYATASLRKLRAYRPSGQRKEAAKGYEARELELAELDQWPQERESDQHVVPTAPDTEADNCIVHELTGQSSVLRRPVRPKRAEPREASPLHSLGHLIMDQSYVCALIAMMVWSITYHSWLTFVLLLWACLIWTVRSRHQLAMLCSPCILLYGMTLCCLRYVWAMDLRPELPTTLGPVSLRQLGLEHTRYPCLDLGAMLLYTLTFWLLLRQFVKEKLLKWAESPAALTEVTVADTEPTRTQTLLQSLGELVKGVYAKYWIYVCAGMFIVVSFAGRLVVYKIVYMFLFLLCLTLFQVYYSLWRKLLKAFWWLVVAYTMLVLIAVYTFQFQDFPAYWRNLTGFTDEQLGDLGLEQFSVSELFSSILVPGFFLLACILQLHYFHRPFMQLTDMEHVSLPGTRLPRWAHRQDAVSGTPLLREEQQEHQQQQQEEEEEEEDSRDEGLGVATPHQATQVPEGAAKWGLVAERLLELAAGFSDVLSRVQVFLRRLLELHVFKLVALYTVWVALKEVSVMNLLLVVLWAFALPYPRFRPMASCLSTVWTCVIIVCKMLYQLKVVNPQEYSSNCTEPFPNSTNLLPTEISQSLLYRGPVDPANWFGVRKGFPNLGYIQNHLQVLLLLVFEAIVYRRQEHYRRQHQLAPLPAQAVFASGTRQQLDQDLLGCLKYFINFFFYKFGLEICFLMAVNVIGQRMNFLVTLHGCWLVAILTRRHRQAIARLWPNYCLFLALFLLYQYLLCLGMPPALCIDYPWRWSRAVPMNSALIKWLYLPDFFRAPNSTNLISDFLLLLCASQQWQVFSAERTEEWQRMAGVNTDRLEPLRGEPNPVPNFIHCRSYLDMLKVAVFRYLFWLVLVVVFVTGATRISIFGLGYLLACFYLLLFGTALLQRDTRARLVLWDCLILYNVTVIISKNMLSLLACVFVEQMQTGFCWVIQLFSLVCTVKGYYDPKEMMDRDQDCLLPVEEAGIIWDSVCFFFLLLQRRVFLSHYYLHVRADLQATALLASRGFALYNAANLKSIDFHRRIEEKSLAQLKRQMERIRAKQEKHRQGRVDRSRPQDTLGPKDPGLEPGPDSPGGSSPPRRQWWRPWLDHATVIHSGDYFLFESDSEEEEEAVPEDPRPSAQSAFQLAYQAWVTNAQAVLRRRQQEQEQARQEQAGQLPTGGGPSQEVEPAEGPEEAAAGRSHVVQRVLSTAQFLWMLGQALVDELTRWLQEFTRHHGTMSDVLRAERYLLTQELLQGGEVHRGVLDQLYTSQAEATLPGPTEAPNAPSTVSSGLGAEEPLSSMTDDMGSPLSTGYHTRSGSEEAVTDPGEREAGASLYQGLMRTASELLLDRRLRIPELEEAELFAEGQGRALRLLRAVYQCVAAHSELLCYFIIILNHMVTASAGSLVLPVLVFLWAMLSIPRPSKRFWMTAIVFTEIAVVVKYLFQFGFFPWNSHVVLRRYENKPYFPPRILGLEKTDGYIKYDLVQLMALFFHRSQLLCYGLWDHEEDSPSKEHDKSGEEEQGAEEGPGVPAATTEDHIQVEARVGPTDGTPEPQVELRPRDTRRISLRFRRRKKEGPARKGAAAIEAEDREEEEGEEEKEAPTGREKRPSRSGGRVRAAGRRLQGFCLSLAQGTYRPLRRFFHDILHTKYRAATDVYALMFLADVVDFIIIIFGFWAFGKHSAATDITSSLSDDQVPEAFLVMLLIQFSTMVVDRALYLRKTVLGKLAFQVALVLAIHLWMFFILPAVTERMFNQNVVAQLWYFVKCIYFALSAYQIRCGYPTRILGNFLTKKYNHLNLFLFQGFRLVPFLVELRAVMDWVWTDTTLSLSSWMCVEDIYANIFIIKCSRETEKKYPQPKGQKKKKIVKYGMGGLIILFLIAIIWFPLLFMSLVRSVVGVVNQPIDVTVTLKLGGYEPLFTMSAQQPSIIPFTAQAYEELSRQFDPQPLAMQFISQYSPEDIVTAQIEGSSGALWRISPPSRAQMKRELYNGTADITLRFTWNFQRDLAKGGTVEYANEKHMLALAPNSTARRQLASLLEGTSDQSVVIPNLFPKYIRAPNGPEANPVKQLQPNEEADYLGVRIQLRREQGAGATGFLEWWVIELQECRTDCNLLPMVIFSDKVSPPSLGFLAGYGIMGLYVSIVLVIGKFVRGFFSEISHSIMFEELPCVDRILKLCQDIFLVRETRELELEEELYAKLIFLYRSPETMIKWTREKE

[2] = target: T1, Piezo-type mechanosensitive ion channel component 1; assay: Agonist activity at human PIEZO1 overexpressing HEK293-A cells co-expressing mCherry-piezo1 assessed as fold change in calcium influx at 20 uM by fluo-3 based real-time flow cytometric analysis; assay type: cell-based
[3] = target: T1, Piezo-type mechanosensitive ion channel component 1; assay: Agonist activity at human PIEZO1 overexpressing HEK293-A cells co-expressing mCherry-piezo1 assessed as fold change in calcium influx at 5 uM by fluo-3 based real-time flow cytometric analysis; assay type: cell-based
[4] = target: T1, Piezo-type mechanosensitive ion channel component 1; assay: Agonist activity at human PIEZO1 overexpressing HEK293-A cells co-expressing mCherry-piezo1 assessed as fold change in calcium influx at 10 uM by fluo-3 based real-time flow cytometric analysis; assay type: cell-based
[5] = target: T1, Piezo-type mechanosensitive ion channel component 1; assay: Agonist activity at human PIEZO1 overexpressing HEK293-A cells co-expressing mCherry-piezo1 assessed as fold change in calcium influx at 0.5 uM by fluo-3 based real-time flow cytometric analysis; assay type: cell-based
[6] = target: T1, Piezo-type mechanosensitive ion channel component 1; assay: Agonist activity at human PIEZO1 overexpressing HEK293-A cells co-expressing mCherry-piezo1 assessed as fold change in calcium influx at 0.1 uM by fluo-3 based real-time flow cytometric analysis; assay type: cell-based
[7] = target: T1, Piezo-type mechanosensitive ion channel component 1; assay: Agonist activity at human PIEZO1 overexpressing HEK293-A cells co-expressing mCherry-piezo1 assessed as fold change in calcium influx at 1 uM by fluo-3 based real-time flow cytometric analysis; assay type: cell-based
[8] = target: T1, Piezo-type mechanosensitive ion channel component 1; assay: Agonist activity at human PIEZO1 overexpressing HEK293-A cells co-expressing mCherry-piezo1 assessed as induction of calcium influx by fluo-3 based real-time flow cytometric analysis; assay type: cell-based
[9] = target: T1, Piezo-type mechanosensitive ion channel component 1; assay: Agonist activity at human PIEZO1 overexpressing HEK293-A cells co-expressing mCherry-piezo1 assessed as induction of calcium influx by measuring maximum efficacy in fold change by fluo-3 based real-time flow cytometric analysis; assay type: cell-based; details: filed as agonist
[10] = target: T1, Piezo-type mechanosensitive ion channel component 1; assay: Agonist activity at human PIEZO1 overexpressing HEK293-A cells co-expressing mCherry-piezo1 assessed as fold change in calcium influx at 25 uM by fluo-3 based real-time flow cytometric analysis; assay type: cell-based
[11] = target: T1, Piezo-type mechanosensitive ion channel component 1; assay: Agonist activity at PIEZO1 in human CD4+ T cell assessed as intracellular calcium influx measured for 30 mins by flow cytometry analysis; assay type: cell-based
[12] = Cytotoxicity against human PBMC cells assessed as decrease in cell viability at 0.1 to 5 uM incubated for 6 hrs by MTT assay; assay type: toxicity, cell-based; details: dose 0.1-5 µM
[13] = Cytotoxicity against human PBMC cells assessed as decrease in cell viability at 20 uM incubated for 24 hrs by MTT assay; assay type: toxicity, cell-based
[14] = Kinetic aqueous solubility of compound in PBS at pH 7.4 measured after 24 hrs by HPLC-UV analysis; assay type: physicochemical; details: read-out: Kinetic_solubility
[15] = target: T1, Piezo-type mechanosensitive ion channel component 1; assay: Agonist activity at PIEZO1 in human CD4+ T cell assessed as fold increase in intracellular calcium influx measured for 30 mins by flow cytometry analysis; assay type: cell-based

Row | fold change (FC) [1] | fold change (FC) [2] | fold change (FC) [3] | fold change (FC) [4] | fold change (FC) [5] | fold change (FC) [6] | fold change (FC) [7] | EC50 [8] [nM] | fold change (FC) [9] | Activity [10] | Activity [11] | solubility kinetic at 24 h [14] [µM] | fold change (FC) [15] | Compound | Activity [12] | Activity [13]
1 | < 1.2 | < 1.2 | – | – | – | – | – | – | – | – | – | – | – | c1ccc(CSc2nnc(-c3cnccn3)o2)cc1 | – | –
2 | < 1.2 | < 1.2 | < 1.2 | < 1.2 | < 1.2 | < 1.2 | < 1.2 | – | – | – | – | – | – | Clc1cccc(Cl)c1CNc1nnc(-c2cnccn2)o1 | – | –
3 | > 1.2 | > 1.2 | < 1.2 | > 1.2 | < 1.2 | < 1.2 | < 1.2 | 9900 | 1.9 | – | – | – | – | Brc1ccc(Br)c(CSc2nnc(-c3cnccn3)o2)c1 | – | –
4 | – | < 1.2 | – | – | – | < 1.2 | – | – | – | – | – | – | – | Clc1cccc(CSc2nnc(-c3cnccn3)o2)c1Cl | – | –
5 | < 1.2 | > 1.2 | > 1.2 | > 1.2 | < 1.2 | < 1.2 | < 1.2 | 1090 | 1.55 | – | – | – | – | Fc1cccc(Cl)c1CSc1nnc(-c2cnccn2)o1 | – | –
6 | < 1.2 | < 1.2 | – | – | – | – | – | – | – | – | – | – | – | Clc1ccccc1CSc1nnc(-c2cnccn2)o1 | – | –
7 | < 1.2 | < 1.2 | – | – | – | – | – | – | – | – | – | – | – | N#Cc1ccccc1CSc1nnc(-c2cnccn2)o1 | – | –
8 | < 1.2 | < 1.2 | – | – | – | – | – | – | – | inactive | – | – | – | Clc1ccccc1CSc1nnc(-c2cnccn2)[nH]1 | – | –
9 | < 1.2 | < 1.2 | – | – | – | – | – | – | – | – | – | – | – | Ic1ccccc1CSc1nnc(-c2cnccn2)o1 | – | –
10 | < 1.2 | < 1.2 | < 1.2 | < 1.2 | < 1.2 | < 1.2 | < 1.2 | – | – | – | – | – | – | O=c1oc(-c2cnccn2)nn1Cc1c(Cl)cccc1Cl | – | –
11 | – | < 1.2 | – | – | – | < 1.2 | – | – | – | – | – | – | – | Fc1cccc(F)c1CSc1nnc(-c2cnccn2)o1 | – | –
12 | < 1.2 | < 1.2 | < 1.2 | < 1.2 | < 1.2 | < 1.2 | < 1.2 | – | – | – | – | – | – | O=c1oc(-c2cnccn2)nn1Cc1ccccc1Cl | – | –
13 | > 1.2 | > 1.2 | < 1.2 | > 1.2 | < 1.2 | < 1.2 | < 1.2 | 2060 | 1.35 | – | inactive | – | – | FC(F)(F)c1ccccc1CSc1nnc(-c2cnccn2)o1 | Non-Toxic | Non-Toxic
14 | – | < 1.2 | – | – | – | < 1.2 | – | – | – | – | – | – | – | Clc1ccc(CSc2nnc(-c3cnccn3)o2)c(Cl)c1 | – | –
15 | > 1.2 | > 1.2 | > 1.2 | > 1.2 | > 1.2 | < 1.2 | > 1.2 | 500 | 2.4 | – | – | 1.22 (≈ 0.433 µg/mL) | – | Clc1cccc(Cl)c1CSc1nnc(-c2cnccn2)s1 | – | –
16 | < 1.2 | < 1.2 | < 1.2 | < 1.2 | < 1.2 | < 1.2 | < 1.2 | – | – | – | – | – | – | Clc1cccc(Cl)c1CSc1nnc(-c2ccc[nH]2)o1 | – | –
17 | > 1.2 | > 1.2 | > 1.2 | > 1.2 | < 1.2 | < 1.2 | > 1.2 | 1340 | 2.07 | – | – | – | > 2 | Clc1cccc(Cl)c1CSc1nnc(-c2cnccn2)o1 | – | –
18 | > 1.2 | > 1.2 | > 1.2 | > 1.2 | > 1.2 | < 1.2 | > 1.2 | 880 | 2.3 | – | – | – | – | FC(F)(F)c1ccc(Cl)c(CSc2nnc(-c3cnccn3)o2)c1 | – | –

Row | fold change (FC) [1] | fold change (FC) [2] | fold change (FC) [3] | fold change (FC) [4] | fold change (FC) [5] | fold change (FC) [6] | fold change (FC) [7] | EC50 [8] [nM] | fold change (FC) [9] | Activity [10] | Activity [11] | solubility kinetic at 24 h [14] [µM] | fold change (FC) [15] | Compound | Activity [12] | Activity [13]
19 | > 1.2 | > 1.2 | > 1.2 | > 1.2 | > 1.2 | < 1.2 | > 1.2 | 600 | 2.3 | – | – | – | – | FC(F)(F)c1ccc(Br)c(CSc2nnc(-c3cnccn3)o2)c1 | – | –
20 | < 1.2 | < 1.2 | – | – | – | – | – | – | – | inactive | – | – | – | Clc1cccc(Cl)c1CSc1nnc(-c2cnccn2)[nH]1 | – | –
21 | < 1.2 | < 1.2 | – | – | – | – | – | – | – | – | – | – | – | O=[N+]([O-])c1ccccc1CSc1nnc(-c2cnccn2)o1 | – | –
22 | > 1.2 | > 1.2 | > 1.2 | > 1.2 | > 1.2 | < 1.2 | > 1.2 | 550 | 1.7 | – | – | – | – | FC(F)(F)c1ccc(Cl)cc1CSc1nnc(-c2cnccn2)o1 | – | –
23 | > 1.2 | > 1.2 | > 1.2 | > 1.2 | > 1.2 | > 1.2 | > 1.2 | 460 | 2.7 | – | – | – | – | FC(F)(F)c1cccc(Br)c1CSc1nnc(-c2cnccn2)o1 | – | –
24 | > 1.2 | > 1.2 | > 1.2 | > 1.2 | < 1.2 | < 1.2 | > 1.2 | 1000 | 1.68 | – | inactive | – | – | FC(F)(F)c1ccc(C(F)(F)F)c(CSc2nnc(-c3cnccn3)o2)c1 | – | –
25 | < 1.2 | > 1.2 | > 1.2 | > 1.2 | > 1.2 | < 1.2 | > 1.2 | 1040 | 2.9 | – | – | – | > 2 | Clc1cccc(Br)c1CSc1nnc(-c2cnccn2)o1 | – | –
26 | < 1.2 | > 1.2 | > 1.2 | > 1.2 | > 1.2 | < 1.2 | > 1.2 | 2100 | 2.5 | – | – | – | > 2 | Brc1cccc(Br)c1CSc1nnc(-c2cnccn2)o1 | – | –
27 | – | – | – | – | – | – | – | – | – | – | – | 205 | – | O=C([O-])Cc1ccccc1Nc1c(Cl)cccc1Cl.[Na+] [DICLOFENAC SODIUM] | – | –
28 | > 1.2 | > 1.2 | < 1.2 | > 1.2 | < 1.2 | < 1.2 | < 1.2 | 570 | 1.25 | – | – | – | – | Clc1ccc(Cl)c(CSc2nnc(-c3cnccn3)o2)c1 | – | –
29 | < 1.2 | < 1.2 | – | – | – | – | – | – | – | – | – | – | – | Fc1ccccc1CSc1nnc(-c2cnccn2)o1 | – | –
30 | > 1.2 | > 1.2 | > 1.2 | > 1.2 | > 1.2 | > 1.2 | > 1.2 | 400 | 2.6 | – | – | 26.7 (≈ 9.96 µg/mL) | > 2 | FC(F)(F)c1cccc(Cl)c1CSc1nnc(-c2cnccn2)o1 | Non-Toxic | Non-Toxic
31 | < 1.2 | < 1.2 | < 1.2 | < 1.2 | < 1.2 | < 1.2 | < 1.2 | – | – | – | – | – | – | Clc1ccccc1CNc1nnc(-c2cnccn2)o1 | – | –
32 | < 1.2 | < 1.2 | – | – | – | – | – | – | – | – | – | – | – | Brc1ccccc1CSc1nnc(-c2cnccn2)o1 | – | –
33 | < 1.2 | < 1.2 | – | – | – | – | – | – | – | – | – | – | – | Cc1ccccc1CSc1nnc(-c2cnccn2)o1 | – | –
34 | – | – | – | – | – | – | – | – | – | – | – | 14.4 (≈ 3.85 µg/mL) | – | CC/C(=C(/CC)c1ccc(O)cc1)c1ccc(O)cc1 [DIETHYLSTILBESTROL] | – | –
35 | < 1.2 | < 1.2 | < 1.2 | < 1.2 | < 1.2 | < 1.2 | < 1.2 | – | – | – | – | – | – | Clc1ccccc1CSc1nnc(-c2ccc[nH]2)o1 | – | –
